Test results published in patent US4470986A, “Certain imidazo (1,5-A) pyridine aliphatic carboxylic acid derivatives and their use as selective thromboxane inhibitors” (Ciba-Geigy Corporation, priority 1982, dated 1984).

How the values were obtained:
thromboxane synthetase = target: T1, thromboxane synthetase (Homo sapiens, UniProt P24557); assay: in vitro inhibition of thromboxane synthetase (TxB2/PGF2 α+β ratio from 14C-arachidonic acid); type: biochemical; conditions: 30 minutes incubation
T1 construct: crude microsomal preparation of thromboxane synthetase from lysed human platelets; from tissue; host or cells: lysed human platelets, crude microsomal preparation
T1 sequence (P24557 1-533): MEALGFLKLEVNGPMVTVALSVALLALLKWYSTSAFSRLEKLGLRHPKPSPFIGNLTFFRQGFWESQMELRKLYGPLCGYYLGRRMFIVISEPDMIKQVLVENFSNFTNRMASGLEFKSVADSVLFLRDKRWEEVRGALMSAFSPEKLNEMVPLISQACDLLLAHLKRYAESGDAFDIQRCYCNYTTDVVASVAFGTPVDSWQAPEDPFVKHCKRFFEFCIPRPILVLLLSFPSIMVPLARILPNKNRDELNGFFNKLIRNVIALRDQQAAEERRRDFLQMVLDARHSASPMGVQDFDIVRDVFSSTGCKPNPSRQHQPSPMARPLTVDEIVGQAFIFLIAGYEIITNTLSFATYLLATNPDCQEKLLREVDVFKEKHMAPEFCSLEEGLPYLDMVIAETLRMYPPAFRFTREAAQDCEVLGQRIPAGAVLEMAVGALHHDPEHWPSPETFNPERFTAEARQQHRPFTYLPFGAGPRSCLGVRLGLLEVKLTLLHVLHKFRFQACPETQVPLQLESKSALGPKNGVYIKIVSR
Protocol: Res. Comm. 74, 1432 (1977); the testing procedure is as follows:
^14 C-Arachidonic acid is incubated with an enzyme preparation consisting of solubilized and partially purified prostaglandin cyclo-oxygenase from sheep seminal vesicles and a crude microsomal preparation of thromboxane synthetase from lysed human platelets. The test compound (dissolved in buffer, or if necessary, in a small amount of ethanol) is added to the incubation medium. At the end of the incubation period (30 minutes), Prostaglandin E2 (PGE2) is reduced to a mixture of Prostaglandin F2 α and F2 β [PGF2 (α+β)] by addition of sodium borohydride. The radioactive products and excess substrate are extracted into ethyl acetate; the extract is evaporated to dryness; the residue is dissolved in acetone, spotted on thin-layer plates and chromatographed in the solvent system toluene: acetone: glacial acetic acid (100 volumes: 100 volumes: 3 volumes). The radioactive zones are located; those corresponding to Thromboxane B2 (TxB2) and PGF2 α+β are transferred to liquid scintillation vials and counted. The ratio of counts for TxB2 /PGF2 α+β is calculated for each concentration of test compound and IC50 values are determined graphically as the concentration of test compound at which the ratio of TxB2 /PGF2 α+β is reduced to 50% of the control value.

thromboxane B2 = assay: in vivo reduction of plasma thromboxane B2 in rats after ionophore A23187; conditions: rat, oral dose of 5 mg/Kg or lower; ionophore A23187 0.5 mg/kg i.v. two hours after dosing
Protocol: (§1) The inhibition of the synthesis and the reduction of plasma levels of thromboxane is determined in vivo or administration to rats in the following manner (as adapted from the procedures described by Tai et al. in Anal. Biochem. 87:343, 1978 and by Salmon in Prostaglandins 15:383, 1978):
(§2) Rats are dosed with vehicle or test drug and injected intravenously with ionophore A23187 (0.5 mg/kg) two hours later. Blood is collected for analysis 2 minutes after the ionophore injection. A single aliquot of each plasma sample is assayed for thromboxane B2 and another aliquot for 6-keto-PGF1 α (the stable metabolite of prostacyclin, by radioimmunoassay.

6-keto-PGF1 α = assay: in vivo plasma level of 6-keto-PGF1 α (prostacyclin metabolite) in rats after ionophore A23187; conditions: rat; ionophore A23187 0.5 mg/kg i.v. two hours after dosing
Protocol: as §1, §2

| SMILES | IC50 (thromboxane synthetase) [nM] | reduction of the plasma concentration of thromboxane B2 (thromboxane B2) | increase in the plasma level of the prostacyclin metabolite 6-keto-PGF1 α (6-keto-PGF1 α) |
| --- | --- | --- | --- |
| O=C(O)CCCCCc1c(OCc2ccccc2)ccc2cncn12 [6-benzyloxy-5-(5-carboxypentyl)imidazo[1,5-a]pyridine] | ~3 | – | – |
| c1cc(CCCCc2nnn[nH]2)n2cncc2c1 [5-[4-(5-tetrazolyl)butyl]-imidazo[1,5-a]pyridine] | ~10 | over 50% | significant increase |
| O=C(CCCCCc1cccc2cncn12)NO [5-[5-(hydroxycarbamoyl)pentyl]-imidazo[1,5-a]-pyridine] | ~300 | – | – |
